# Laboratory results: patent publication US11286226B2, “Polycyclic carbogenic molecules and uses thereof as anti-cancer agents” (Northwestern University, priority 2017, dated 2022)
# Like-named read-outs stand apart in the source and are kept apart here.
# How the values were obtained:
# HT29 (colon) = assay: Cell viability at 1 mM (CellTiter-GLO), HT29; assay type: cell-based; conditions: Homo sapiens, read-out: Percent Cell Viability of Treated Cell Lines at 1.0 mM, HT29
# Procedure: (§1) Cell lines PC-3, HT29, Hela, and MDA-MB-231 were cultured in RPMI1640 with 10% FBS media. Cell line MDA-MB-231-LM24 was cultured in DMEM with 400 ug/mL geneticin.
# (§2) PC-3, HT29, Hela, and MDA-MB-231, and MDA-MB-231-LM24 cells were plated in […] at a density of 20,000 cells per well (based on NCI recommendation for adherent cells) in 90 μL volume of 5% FBS RPMI1640 complete media with 50 μg/mL gentamicin and incubated at 37° C. overnight. Each compound was diluted in RPMI1640 complete media supplemented with 5% FBS and 50 μg/mL of gentamycin, and 10 μL of this solution was added to each well to give a final concentration of 1 mM (1% overall DMSO, N=4 wells).
# (§3) Cells treated with Doxorubicin with 1% overall DMSO were used as a positive control, and cells media containing 1% DMSO were used as a negative control.
# (§4) 48 hours following treatment, cell proliferation was evaluated using the CellTiter-GLO Luminescent Cell Viability Assay (Promega, Madison, Wis.). Plates were allowed to equilibrate to room temperature for 20 minutes, and 100 μL of CellTiter-GLO reagent was added to all wells. The plates were shaken for 2 minutes and incubated at room temperature for 10 minutes. Luminescence was measured using a Syngergy H1-M microplate reader (BioTek Instruments, Inc.).
# PC-3 (prostate) = assay: Cell viability at 1 mM (CellTiter-GLO), PC-3; assay type: cell-based; conditions: Homo sapiens, 48 h, read-out: Percent Cell Viability of Treated Cell Lines at 1.0 mM, PC-3
# Procedure: as §1, §2, §3, §4
# HeLa (cervix) = assay: Cell viability at 1 mM (CellTiter-GLO), HeLa; assay type: cell-based; conditions: Homo sapiens, 48 h, read-out: Percent Cell Viability of Treated Cell Lines at 1.0 mM, HeLa
# Procedure: as §1, §2, §3, §4
# MDA-MB-231 (breast) = assay: Cell viability at 1 mM (CellTiter-GLO), MDA-MB-231; assay type: cell-based; conditions: Homo sapiens, read-out: Percent Cell Viability of Treated Cell Lines at 1.0 mM, MDA-MB-231
# Procedure: as §1, §2, §3, §4
# [1] = tested on: MDA-MB-231-LM24 (metastatic breast); assay: Cell viability at 1 mM (CellTiter-GLO), MDA-MB-231-LM24; assay type: cell-based; conditions: Homo sapiens, read-out: Percent Cell Viability of Treated Cell Lines at 1.0 mM, MDA-MB-231-LM24
# Procedure: as §1, §2, §3, §4
# [2] = Cell viability at 1 mM (CellTiter-GLO), MCF10A; assay type: cell-based; conditions: human, MCF10A cells (normal breast); 1.0 mM in DMSO, 48 h, MCF10A; read-out: Percent Cell Viability of Treated Cell Lines at 1.0 mM, MCF10A
# Procedure: (§5) Normal breast cell line MCF10A was cultured in DMEM/F12 with 5% horse serum, 20 ng/mL EGF, […], 100 ng/mL cholera toxin, 10 μg/mL insulin, and 1% pen/strep.
# (§6) Normal breast cells (MCF10A) were plated in 96-well black plates at a density of 20,000 cells per well (based on the NCI recommendation for adherent cells) in 90 μL volume of DMEM/F12 with 2% horse serum, 0.5 μg/mL hydrocortisone, 100 ng/mL cholera toxin, 10 μg/mL insulin, and 1% pen/strep, and incubated at 37° C. overnight. The compounds were diluted in the media specified above, and 10 μL of this solution was added to each well to give a final concentration of 1 mM (1% overall DMSO, N=4 wells).
# as §3, §4
# MCF10A ("normal" breast) = assay: Cell viability at 1 mM (CellTiter-GLO), MCF10A; assay type: cell-based; conditions: non-tumorigenic breast epithelial cell line, 1.0 mM
# Procedure: as §5, §6, §3, §4
# [3] = tested on: PC3 (prostate) cancer cell line; assay: Cell viability assay at three concentrations (FIG. 7), PC3; assay type: cell-based, human; conditions: three different concentrations
# [4] = tested on: MDA-MB-231 (breast) cancer cell line; assay: Cell viability assay at three concentrations (FIG. 7), MDA-MB-231; assay type: cell-based, human; conditions: three different concentrations
# MDA-MB-231-LM24 = assay: IC50 experiment (CellTiter-GLO), MDA-MB-231-LM24; assay type: cell-based, human
# Procedure: as §1
# (§7) The compound was diluted in RPMI1640 complete media supplemented with 5% FBS and 50 μg/mL of gentamycin, and 100 μL of this solution was added to each well to give a final concentration of 0.00001-1 mM (N=4 wells). DMSO was held constant at 1%, for all dose points.
# as §4, with “Inc.). The IC50 value was determined by Prism GraphPad Software.” for “Inc.).”
# MCF10A = assay: IC50 experiment (CellTiter-GLO), MCF10A; assay type: cell-based; conditions: Homo sapiens, MCF-10A; 48 h, 1% DMSO; read-out: IC50 against MCF10A
# Procedure: as §5, §7
# as §4, with “Inc.). The IC50 value was determined by Prism GraphPad Software.” for “Inc.).”
# Plasmodium falciparum = conditions: reported value (ref. 60); read-out: IC50 against the malaria parasite Plasmodium falciparum; cited from earlier work
# normal human cells = conditions: reported (ref. 60); cited from earlier work
# [5] = HT-29, 1.0 mM in DMSO, 48 h, HT29
# [6] = 1.0 mM in DMSO, 48 h, MDA-MB-231
# [7] = 1.0 mM in DMSO, 48 h, MDA-MB-231-LM24
Compound,viability at 1000 µM (HT29 (colon); [5]) [%],"viability at 1000 µM (PC-3 (prostate); 1.0 mM in DMSO, PC-3) [%]",viability at 1000 µM (HeLa (cervix); 1.0 mM in DMSO) [%],viability at 1000 µM (MDA-MB-231 (breast); [6]) [%],"viability at 1000 µM [1, 7] [%]","viability at 48 h, 1 mM [2] [%]",also measured
O=C1C=CC[C@H]2C=C[C@@H]3CC=CC(=O)[C@H]3[C@H]12 [Compound 13],2,0,4,26,2,1,"activity against MCF10A cell line (MCF10A (""normal"" breast)): highly active"
CC1=CC[C@H]2C=C[C@@H]3CC=C(C)C(=O)[C@H]3[C@@H]2C1=O [Compound 14],1,72,46,69,67,–,–
CC1=CC(=O)[C@@H]2[C@H]3C(=O)C=C(C)C[C@@H]3C=C[C@H]2C1 [Compound 15],66,63,40,11,54,–,–
CC1=CC[C@H]2C=C(C)[C@@H]3CC=C(C)C(=O)[C@H]3[C@@H]2C1=O [Compound 18],–,–,–,–,–,–,"activity in cell viability assay, PC3 [3]: promising activity; activity in cell viability assay, MDA-MB-231 [4]: promising activity"
CC1=CC[C@H]2C(C)=C[C@@H]3CC=CC(=O)[C@@]3(C)[C@@H]2C1=O [Compound 19],1,1,0,0,0,–,–
CC1=CC[C@@H]2C(C)=C[C@@]3(C)CC=CC(=O)[C@@H]3[C@H]2C1=O [Compound 20],31,11,2,43,10,–,–
CC1=CC[C@@H]2C(C)=C[C@@H]3[C@H](C(=O)C=CC3(C)C)[C@H]2C1=O [Compound 21],–,–,–,–,–,4,"viability at 1000 µM (HT29 (colon); HT-29, 48 h): 0%; viability at 1000 µM (PC-3 (prostate)): 0%; viability at 1000 µM (HeLa (cervix)): 0%; viability at 1000 µM (MDA-MB-231 (breast); MDA-MB-231, 48 h): 0%; viability at 1000 µM ([1]; MDA-MB-231-LM24, 48 h): 0%; activity against MCF10A cell line (MCF10A (""normal"" breast)): highly active"
CC1=CC[C@H]2C(C)=CCC3(CCC=CC3=O)[C@@H]2C1=O (stereo partly shown) [Compound 24],0,0,3,1,0,4,"activity against MCF10A cell line (MCF10A (""normal"" breast)): highly active; activity in cell viability assay, PC3 [3]: promising activity; activity in cell viability assay, MDA-MB-231 [4]: promising activity"
O=C1C=CC[C@H]2CC=C[C@@H]3CC=CC(=O)[C@H]3[C@H]12 [Compound 25],0,0,21,6,1,–,–
C[C@]12CC(=O)C=C[C@@H]1CC=CC2=O [Compound 28],0,1,0,2,16,–,–
C[C@@]12C=CC(=O)C[C@H]1C(=O)C=CC2 [Compound 29],8,2,22,62,26,–,–
O=C1C=CC[C@@H]2[C@@H]1[C@@H]1C(=O)C=CC[C@H]1C1O[C@H]12 (stereo partly shown) [Compound 31],0,0,2,26,3,5,"activity against MCF10A cell line (MCF10A (""normal"" breast)): highly active"
O=C1C2O[C@@H]2C[C@H]2C=C[C@@H]3CC4O[C@H]4C(=O)[C@H]3[C@H]12 (stereo partly shown) [Compound 32],1,1,0,25,0,70,"IC50 (MDA-MB-231-LM24; Homo sapiens, MDA-MB-231-LM24, 48 h, 1% DMSO, read-out: IC50 against MDA-MB-231-LM24): 200 µM; selectivity between cancer versus ""normal"" cell lines (MDA-MB-231-LM24; MCF10A IC50 versus MDA-MB-231-LM24 IC50): 15 times; IC50 (MCF10A): 3.1 mM"
O=C1CCC[C@H]2CC[C@@H]3CCCC(=O)[C@H]3[C@H]12 [Compound 33],51,77,13,75,60,–,–
CC1=C[C@@H]2[C@H](C(=O)CCC2(C)C)[C@H]2C(=O)[C@@H](C)CC[C@H]12 [Compound 36],64,77,41,53,55,–,–
"[C-]#[N+][C@]1(C)[C@H](C)C[C@@H]2C[C@H](C)[C@H]3CC[C@](C)([N+]#[C-])[C@H]4CC[C@H]1[C@@H]2[C@H]34 [Compound 39, (+)-7,20-diisocyanoadociane]",–,–,–,–,–,–,IC50 (Plasmodium falciparum): 4.7 nM; activity against normal human cells (normal human cells): inert
